Measurements taken from the supplement of paper PMC10307832.

Columns and labels:
Test in all cases: relative viability (nuclei count vs DMSO), 5 days (fraction); higher = more cells survive
[1] = compound: O=C(CCCCCCC(=O)Nc1ccccc1)NO [Vorinostat] + C[C@@H](Oc1cc(-c2cnn(C3CCNCC3)c2)cnc1N)c1c(Cl)ccc(F)c1Cl [Crizotinib] (partner 1 µM)
Procedure, shortened: (§1)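 After 5 days of treatment, lung cancer cells in 1536-well plates were fixed and stained in a single step (final 0.05% Triton X-100, 1% formaldehyde, 1 ug/ml Hoechst) and their nuclei counted on 4× images. Treatment had been applied by pin tool the day after seeding as one drug alone or as a fixed anchor-drug dose with five library-drug doses (not always all listed) in √10 steps. Relative viability is the nuclei count of treated wells divided by that of vehicle wells, and values are medians of duplicate plates.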

[2] = compound: O=C(CCCCCCC(=O)Nc1ccccc1)NO [Vorinostat] + CCNC(=O)c1noc(-c2cc(C(C)C)c(O)cc2O)c1-c1ccc(CN2CCOCC2)cc1 [Luminespib] (partner 0.01 µM)
Procedure, shortened: as §1

[3] = compound: O=C(CCCCCCC(=O)Nc1ccccc1)NO [Vorinostat] + O=C(c1cc(Cc2n[nH]c(=O)c3ccccc23)ccc1F)N1CCN(C(=O)C2CC2)CC1 [Olaparib] (partner 8 µM)
Procedure, shortened: as §1

[4] = compound: O=C(CCCCCCC(=O)Nc1ccccc1)NO [Vorinostat] + Nc1nc2[nH]cc(CCc3ccc(C(=O)N[C@@H](CCC(=O)O)C(=O)O)cc3)c2c(=O)[nH]1 [Pemetrexed] (partner 0.2 µM)
Procedure, shortened: as §1

[5] = compound: O=C(CCCCCCC(=O)Nc1ccccc1)NO [Vorinostat] + CC(=O)c1c(C)c2cnc(Nc3ccc(N4CCNCC4)cn3)nc2n(C2CCCC2)c1=O [Palbociclib] (partner 0.5 µM)
Procedure, shortened: as §1

Cell Line | relative viability ([1]; first compound 0.253 µM) | relative viability ([1]; first compound 0.8 µM) | relative viability ([1]; first compound 2.53 µM) | relative viability ([1]; first compound 8 µM) | relative viability ([2]; first compound 0.253 µM) | relative viability ([2]; first compound 0.8 µM) | relative viability ([2]; first compound 2.53 µM) | relative viability ([2]; first compound 8 µM) | relative viability ([3]; first compound 0.253 µM) | relative viability ([3]; first compound 0.8 µM) | relative viability ([3]; first compound 2.53 µM) | relative viability ([3]; first compound 8 µM) | relative viability ([4]; first compound 0.253 µM) | relative viability ([4]; first compound 0.8 µM) | relative viability ([4]; first compound 2.53 µM) | relative viability ([4]; first compound 8 µM) | relative viability ([5]; first compound 0.253 µM) | relative viability ([5]; first compound 0.8 µM) | relative viability ([5]; first compound 2.53 µM) | relative viability ([5]; first compound 8 µM)
NCI-H1792 | 0.966 | 0.983 | 0.826 | 0.0888 | 0.533 | 0.388 | 0.295 | 0.144 | 0.235 | 0.218 | 0.0385 | 0.0192 | 0.795 | 0.524 | 0.163 | 0.0208 | 0.725 | 0.57 | 0.485 | 0.175
NCI-H1666 | 0.788 | 0.713 | 0.244 | 0.22 | 1.16 | 0.894 | 0.477 | 0.339 | 0.669 | 0.755 | 0.512 | 0.475 | 0.849 | 0.887 | 0.651 | 0.434 | 0.634 | 0.576 | 0.523 | 0.511
COR-L 105 | 0.65 | 0.383 | 0.221 | 0.199 | 0.968 | 0.892 | 0.646 | 0.219 | 0.727 | 0.821 | 0.589 | 0.266 | 1.21 | 1.25 | 0.7 | 0.281 | 0.402 | 0.396 | 0.283 | 0.284
NCI-H520 | 0.796 | 0.482 | 0.133 | 0.108 | 0.209 | 0.213 | 0.212 | 0.195 | 0.299 | 0.264 | 0.184 | 0.116 | 0.831 | 0.663 | 0.322 | 0.17 | 0.351 | 0.31 | 0.19 | 0.133
NCI-H2126 | 0.961 | 1.01 | 0.538 | 0.203 | 0.832 | 0.977 | 0.403 | 0.175 | 0.885 | 0.905 | 0.391 | 0.196 | 0.776 | 0.666 | 0.419 | 0.208 | 0.396 | 0.367 | 0.314 | 0.194
PC-14 | 0.888 | 0.865 | 0.215 | 0.0683 | 0.128 | 0.143 | 0.113 | 0.133 | 0.351 | 0.197 | 0.064 | 0.0386 | 0.162 | 0.177 | 0.14 | 0.0507 | 0.56 | 0.351 | 0.0802 | 0.0377
